The source of these data is patent publication US10918107B2, “Encapsulated lactams” (Conopco, Inc., priority 2015, dated 2021).

This series can be described thus: Solubility of the lactam in 2-heptanone carrier oil. The format is physicochemical. The following applies: 'also soluble at 1%' (0.5% solution used in the example). As to the method:
2-heptanone was used as the carrier (oil phase) for the lactam at a ratio of 1:199 (Lactam:Heptanone) which equates to 0.5% lactam solution. The inventor(s) have determined that the lactam is also soluble at 1%. The isocyanate was polymethylene polyphenyl isocyanate (Mn340) and the crosslinker was hexamethylenediamine (HMDA). Emulsification was carried out at a shear of 15K. The stabiliser is a commercial naphthalene sulphonate called Morwet-D425®. Morwet forms dark brown solutions so the encapsulated slurry is often buff/brown coloured.

SMILES strings stand for the structures. A value given as a limit tells only on which side of the number the result lay.

Consider `C=C1NC(=O)C=C1c1ccc(Cl)cc1` [Ref. 488, 4-(4-chlorophenyl)-5-methylene-pyrrol-2-one], for which the “solubility of lactam in 2-heptanone (carrier oil)” value was ≥ 1%.
